Experimental data reported in US20020137929A1, “1 - (3-heterocyclylphenyl) isothiourea, -isourea, -guanidine and -amidine herbicidal agents” (Intellectual Property Department, BASF Aktiengesellschaft, priority 1998, published 2002).

Experiments:
[1] = tested on: AMBEL (Ragweed, Common); assay: Postemergence herbicidal evaluation; assay type: in vivo, Ambrosia artemisifolia
Summary of the method: (§1)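 Scores (0–9) reflect plant stand, vigor, malformation, size, chlorosis and general appearance relative to control, read 4 to 5 weeks after treatment and averaged where tests were repeated. Application: about 0.0156–0.500 kg/ha sprayed at 40 psi onto two-week seedlings.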

[2] = tested on: CASOB (Sicklepod); assay: Postemergence herbicidal evaluation; assay type: in vivo, Cassia obtusifolia
Summary of the method: as §1

[3] = tested on: CHEAL (Lambsquarters, Common); assay: Postemergence herbicidal evaluation; assay type: in vivo, Chenopodium album
Summary of the method: as §1

[4] = tested on: GALAP (Galium); assay: Postemergence herbicidal evaluation; assay type: in vivo, Galium aparine
Summary of the method: as §1

[5] = tested on: ECHCG (Barnyardgrass); assay: Postemergence herbicidal evaluation; assay type: in vivo, Echinochloa crus-galli
Summary of the method: as §1

[6] = tested on: SETVI (Foxtail, Green); assay: Postemergence herbicidal evaluation; assay type: in vivo, Setaria viridis
Summary of the method: as §1

[7] = tested on: GLXMAW (Soybean, Williams); assay: Postemergence herbicidal evaluation; assay type: in vivo, Glycine max, (L.) Merr. cv Williams
Summary of the method: as §1

[8] = tested on: ORYSAT (Rice, Tebonnet); assay: Postemergence herbicidal evaluation; assay type: in vivo, Oryza sativa, (L.) Tebonnet
Summary of the method: as §1

[9] = tested on: CASOB (Sicklepod); assay: Preemergence herbicidal evaluation; assay type: in vivo, Cassia obtusifolia; conditions: rated 4-5 weeks after treatment
Summary of the method: (§2)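 Seeds were planted in potting soil in cups, then sprayed preemergence with the test compound in aqueous acetone at about 0.0156 to 0.500 kg per hectare. Cups were kept under greenhouse conditions and visually rated 4–5 weeks after treatment on a 0–9 scale against an untreated control.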

[10] = tested on: GALAP (Galium); assay: Preemergence herbicidal evaluation; assay type: in vivo, Galium aparine; conditions: rated 4-5 weeks after treatment
Summary of the method: as §2

[11] = tested on: ZEAMX (Corn, Field); assay: Preemergence herbicidal evaluation; assay type: in vivo, Zea mays; conditions: rated 4-5 weeks after treatment
Summary of the method: as §2

[12] = tested on: CYPIR (Rice Flatsedge); assay: Preemergence weed control under flooded paddy conditions; assay type: in vivo, Cyperus iria; conditions: 0.2500 kg/ha, rated 3-4 weeks after treatment
Summary of the method: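 Flooded-pot preemergence screen with silt loam and seeds in the upper 0.5 cm. Dose about 0.0313 to 0.500 kg/ha, delivered into flood water; visual 0-9 score after 3 to 4 weeks.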

[13] = tested on: CYPSE (Flatsedge); assay: as above; assay type: in vivo, Cyperus serotinus; conditions: 0.2500 kg/ha, rated 3-4 weeks after treatment
Summary of the method: (§3)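 Herbicidal effect is scored visually on a 0-9 scale against an untreated control, three to four weeks after compounds are pipetted into the flood water (1.5 to 3 cm deep) over seeds planted in silt loam at 0.5 cm depth. Rates: about 0.0313 to 0.500 kg/ha.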

[14] = tested on: SAGPY (Arrowhead (Pygmaea)); assay: as above; assay type: in vivo, Sagittaria pygmaea; conditions: 0.2500 kg/ha, rated 3-4 weeks after treatment
Summary of the method: as §3

[15] = tested on: CYPSE (Flatsedge); assay: Postemergence weed control under flooded paddy conditions; assay type: in vivo, Cyperus serotinus; conditions: Rate 0.2500 kg/ha, postemergence weeds, rated 3 to 4 weeks after treatment
Summary of the method: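 With weeds 3 to 5 cm tall and rice at the 1.5 to 2.5 leaf stage, containers were flooded and water held 1.5 to 3 cm above soil. Compounds in 50/50 v/v aqueous/acetone went into the flood water at about 0.0313 to 0.500 kg/ha a.i. Effects were visually rated 0–9 against controls after three to four weeks in the greenhouse.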

SMILES: Cn1c(C(F)(F)F)cc(=O)n(-c2cc(/N=C3/SC(CC(=O)O)C(=O)N3CC(=O)O)c(Cl)cc2F)c1=O (stereo not shown) [Compound 61, 2-{{2-Chloro-5-[3,6-dihydro-3-methyl-2,6-dioxo-4-(trifluoromethyl)-1(2H)-pyrimidinyl]-4-fluorophenyl}imino}-4-oxo-3,5-thiazolidinediacetic acid]
- Postemergence herbicidal rating AMBEL ([1]; Rate 0.0158 kg/ha): 0.0
- Postemergence herbicidal rating AMBEL ([1]; Rate 0.0315 kg/ha): 0.0
- Postemergence herbicidal rating AMBEL ([1]; Rate 0.0630 kg/ha): 0.0
- Postemergence herbicidal rating CASOB ([2]; Rate 0.0158 kg/ha): 0.0
- Postemergence herbicidal rating CASOB ([2]; Rate 0.0315 kg/ha): 0.0
- Postemergence herbicidal rating CASOB ([2]; Rate 0.0630 kg/ha): 0.0
- Postemergence herbicidal rating CHEAL ([3]; Rate 0.0158 kg/ha): 0.0
- Postemergence herbicidal rating CHEAL ([3]; Rate 0.0315 kg/ha): 0.0
- Postemergence herbicidal rating CHEAL ([3]; Rate 0.0630 kg/ha): 0.0
- Postemergence herbicidal rating GALAP ([4]; Rate 0.0158 kg/ha): 0.0
- Postemergence herbicidal rating GALAP ([4]; Rate 0.0315 kg/ha): 0.0
- Postemergence herbicidal rating GALAP ([4]; Rate 0.0630 kg/ha): 0.0
- Postemergence herbicidal rating ECHCG ([5]; Rate 0.0158 kg/ha): 0.0
- Postemergence herbicidal rating ECHCG ([5]; Rate 0.0315 kg/ha): 0.0
- Postemergence herbicidal rating ECHCG ([5]; Rate 0.0630 kg/ha): 0.0
- Postemergence herbicidal rating SETVI ([6]; Rate 0.0158 kg/ha): 0.0
- Postemergence herbicidal rating SETVI ([6]; Rate 0.0315 kg/ha): 0.0
- Postemergence herbicidal rating SETVI ([6]; Rate 0.0630 kg/ha): 2.0
- Postemergence herbicidal rating GLXMAW ([7]; Rate 0.0158 kg/ha): 2.0
- Postemergence herbicidal rating GLXMAW ([7]; Rate 0.0315 kg/ha): 3.0
- Postemergence herbicidal rating GLXMAW ([7]; Rate 0.0630 kg/ha): 4.0
- Postemergence herbicidal rating ORYSAT ([8]; Rate 0.0158 kg/ha): 0.5
- Postemergence herbicidal rating ORYSAT ([8]; Rate 0.0315 kg/ha): 0.5
- Postemergence herbicidal rating ORYSAT ([8]; Rate 0.0630 kg/ha): 1.5
- Preemergence herbicidal rating CASOB ([9]; rate 0.1250 kg/ha): 0.0
- Preemergence herbicidal rating CASOB ([9]; rate 0.2500 kg/ha): 1.0
- Preemergence herbicidal rating GALAP ([10]; rate 0.1250 kg/ha): 0.0
- Preemergence herbicidal rating GALAP ([10]; rate 0.2500 kg/ha): 0.0
- Preemergence herbicidal rating ZEAMX ([11]; rate 0.1250 kg/ha): 0.0
- Preemergence herbicidal rating ZEAMX ([11]; rate 0.2500 kg/ha): 1.0
- CYPIR herbicidal effect rating [12]: 0.0
- CYPSE herbicidal effect rating [13]: 0.0
- SAGPY herbicidal effect rating [14]: 0.0
- Herbicidal rating CYPSE [15]: 0.0
